Here are results for 5 compounds from patent US20140128359A1, “N-Heterocyclic Substituent-Containing Antibiotic, Preparation and Use Thereof” (priority 2012, published 2014).

Structures are written as SMILES. Where two headings read alike, the source gives them in different places.

One data set is described as follows: pH of aqueous solution. It is filed as physicochemical.
The subject of data set [1] is Excrement Enterococcus. The data set can be described thus: Vitro bacteriostasis, two-fold agar dilution method. The data set is classed as cell-based. The procedure: (§1) Vitro bacteriostasis experiments of Compounds Ia, Ib, and Ic were performed using the two-fold agar dilution method.
Another data set deals with Type A Chain Coccus. Described as above. It is filed as cell-based. The procedure: as §1
The subject of data set [2] is Moraxella Catarrhalis. Described as above. The data set is classed as cell-based. The method, then:
as §1

In another data set the test system is Haemophilus Influenzae. The description is as above. The data set is classed as cell-based. The method, then: as §1
The next data set relates to Shigella. The data set is described as above. It is filed as cell-based. The procedure:
as §1

Data set [3] concerns Pneumonia Chain Coccus. The description is as above. It is filed as cell-based. The procedure:
as §1

The next data set relates to Type B Chain Coccus. Described as above. It is filed as cell-based. The method, then: as §1
The format of data set [4] is physicochemical. The note with it: for content in aqueous injection solution: 37° C. The source says: (§2) Compared to Compound II, Compound I has better stability in aqueous solution (see Table 2) and in the solid state (See Table 3). Thus Compound I can be stored without freezing or special treatment.
Data set [5] in a line: Acute toxicity tests on rats. The data set is classed as in vivo. The note with it: intravenous injection.
The format of data set [6] is in vivo. The method, then:
The inventors conducted preliminary pharmacokinetic study of Compound Ia on Beagle dogs. The Beagle dogs were allowed to drink water freely but not to eat food for 16 hours before and 4 hours after the intravenous injection of 50 mg/kg.bw of the compound. Intravenous blood sampling took place at 0, 0.083, 0.17, 0.25, 0.5, 1, 1.5, 2, 3, 4, 6, 9, 12 hours, respectively, after the injection, each blood sample being 3 mL. Thereafter the dogs were given the drugs every other week and blood samples were taken according to the above manner. The blood samples were added to the centrifuge tubes containing heparin and thoroughly mixed by centrifuging at 4000 rpm for 10 minutes. The blood plasma was separated and an abstraction agent (methanol/ethyl acetate 3:2 V/V) was added to and mixed with it by centrifuging at 10000 rpm for 10 minutes. The top, clear liquid, 20 μL, was taken and analyzed by HPLC.

Data set [7] in a line: Muscle stimulation test on rabbits. The data set is classed as in vivo, New Zealand rabbits. The text has this:
The inventors have conducted the muscle stimulation test of Compounds Ia and II on rabbits. The test is as follows. Eight New Zealand rabbits were divided into three groups. Two groups, containing three rabbits per group, were administrated with Compound Ia and Compound II, respectively. The third group, containing two rabbits, was used as a negative control group. The rabbits were intramuscularly injected with high concentrations of the compounds into the left quadriceps and with low concentration into the right quadriceps. The negative control group was injected with an equal concentration of sodium chloride into the quadriceps of both sides. Each quadriceps was administrated with 1.0 mL once a day for three consecutive days. One or two rabbits from each group were anatomized after 48 hours of the injection. The remaining rabbits were anatomized after the end of the two-week recovery period.

Data set [8] in a line: Solid state stability, 72 hours in storage at various temperatures. It is filed as physicochemical.
From the text: as §2

The subject of data set [9] is Excrement Enterococcus. The data set can be described thus: In-vivo antibacterial activity (protection of rats). The note with it: against Excrement Enterococcus.
Data set [10] deals with Moraxella Catarrhalis. Description: In-vivo antibacterial activity (protection of rats). The note with it: against Moraxella Catarrhalis.
The subject of data set [11] is Pneumonia Chain Coccus. The data set is described as above. The note with it: against Pneumonia Chain Coccus.
Setting [12] is: healthy Beagle dogs, single intravenous injection 50 mg/kg.bw.

As for `CC(C)N=C(NC(C)C)SCC(=O)NC1C(=O)N2C(C(=O)[O-])=C(CSc3nc(=O)c(=O)[nH]n3C)CSC12.CC(C)N=C(NC(C)C)SCC(=O)NC1C(=O)N2C(C(=O)[O-])=C(CSc3nc(=O)c(=O)[nH]n3C)CSC12.[Na+].[Na+]` (stereo not drawn) [Compound Ib, disodium 7-(α-((N,N′-diisopropylamidino)thio)acetylamino)-3-(((1,2,5,6-tetrahydro-2-methyl-5,6-dioxo-1,2,4-triazin-3-yl)thio)methyl) cephalosporanate], in the data set “pH of aqueous solution” (concentration 0.1 g/mL), the pH came to 10.02. The MIC90 against Excrement Enterococcus [1] stood at 4 µg/mL; against Type A Chain Coccus, 0.1 µg/mL; with Moraxella Catarrhalis [2], 0.5 µg/mL; against Haemophilus Influenzae, 0.5 µg/mL; with Shigella it was 4 µg/mL; against Pneumonia Chain Coccus [3] it was 0.5 µg/mL. In the data set with Type B Chain Coccus, this compound registered an MIC90 of 0.0125 µg/mL. Also, the “content in aqueous injection solution” value in data set [4] (0 hr) was 98.80%; in data set [4] (0.2 hr) it was 98.54%; in [4] (1 hr), 97.14%; in [4] (2 hr), 96.66%; in data set [4] (3 hr), 95.21%; in [4] (4 hr) it was 94.30%.

As to `CC(=O)OCC1=C(C(=O)O)N2C(=O)[C@@H](NC(=O)CSC(=NC(C)C)NC(C)C)[C@H]2SC1` [cefathiamidine, Cefathiamidine, reference compound], the median lethal dose (LD50) – broadly, the dose expected to kill half of the subjects tested – in [5] was 824.2 mg/kg. Also, the “biological half-life in blood” value in [6] (Beagle dogs, preliminary pharmacokinetic study) is listed as 0.65 hours. The compound further came in with a t1/2β in [6] (setting [12]) of 39 ± 1.8 min.

On to `CC(C)N=C(NC(C)C)SCC(=O)NC1C(=O)N2C(C(=O)O)=C(CSc3nc(=O)c(=O)[nH]n3C)CSC12` (stereo not drawn) [Compound II, 7-(α-((N,N′-diisopropylamidino)thio)acetylamino)-3-(((1,2,5,6-tetrahydro-2-methyl-5,6-dioxo-1,2,4-triazin-3-yl)thio)methyl) cephalosporanic acid, reference compound], for which, in [7] (rabbit, in vivo), the “irritation (general statement)” value was “irritates muscles and blood vessels”. Also, the muscle irritation observed entry in data set [7] (rabbit, in vivo) is given as “various levels of intense irritation”. In addition, in “pH of aqueous solution” (concentration not given), the pH was determined as 3.2. Further, the “pH value of saturated aqueous solution” value in the data set “pH of aqueous solution” (saturated aqueous solution) turned out to be 3.2. Moreover, the “content after 72 hours in storage” value is given as 97.9% in [8] (10° C.), 96.3% in data set [8] (40° C.), 92.75% in data set [8] (60° C.) and 98.0% in data set [8] (−5° C.). In addition, the “stability (general statement)” value in [4] is listed as “low stability”. Also, the “content in aqueous injection solution” value turned out to be 98.50% in [4] (0 hr); 94.33% in data set [4] (0.2 hr); 84.26% in [4] (1 hr); 77.04% in data set [4] (2 hr); 71.06% in [4] (3 hr); 66.48% in data set [4] (4 hr).

As to `CC(C)N=C(NC(C)C)SCC(=O)NC1C(=O)N2C(C(=O)[O-])=C(CSc3nc(=O)c(=O)[nH]n3C)CSC12.[Na+]` (stereo not drawn) [Compound Ia, 7-(α-((N,N′-diisopropylamidino)thio)acetylamino)-3-(((1,2,5,6-tetrahydro-2-methyl-5,6-dioxo-1,2,4-triazin-3-yl)thio)methyl) cephalosporanic acid mono sodium salt], the muscle irritation observed result in data set [7] (rabbits, intramuscular into quadriceps, 1.0 mL once a day for three days, 48 hours and 14 days after last administration) is “slight irritation”. The pH in the data set “pH of aqueous solution” (concentration 0.1 g/mL) and in the data set “pH of aqueous solution” (concentration not given) was 7.3 each time. Also, the MIC90 in the data set with Excrement Enterococcus [1] worked out at 8 µg/mL; with Type A Chain Coccus it was 0.5 µg/mL; in the data set with Moraxella Catarrhalis [2], 1 µg/mL; with Haemophilus Influenzae it was 0.5 µg/mL; against Shigella, 4 µg/mL; in the data set with Pneumonia Chain Coccus [3], 0.125 µg/mL. Also, in the data set on Type B Chain Coccus, the MIC90 worked out at 0.0625 µg/mL. The protection for rats result in the data set on Excrement Enterococcus [9], with Moraxella Catarrhalis [10] and in the data set on Pneumonia Chain Coccus [11] was “excellent protection” in each case. For the same compound, the solubility in acetone entry in “Solubility” (acetone) is “not readily soluble”. Moreover, in the data set “Solubility” (anhydrous ethanol), the “solubility in anhydrous ethanol” value is given as “not readily soluble”. In “Solubility” (methanol), the solubility in methanol entry is “readily soluble”. Further, in the data set “Solubility” (water), the solubility in water entry is reported as “readily soluble”. For the same compound, the “content after 72 hours in storage” value in [8] (10° C.) is 96.9%; in [8] (40° C.), 96.6%; in [8] (60° C.), 96.4%; in data set [8] (−5° C.) it was 97.0%. Moreover, the “content in aqueous injection solution” value is 98.60% in data set [4] (0 hr); 98.60% in data set [4] (0.2 hr); 97.98% in [4] (1 hr); 97.79% in [4] (2 hr); 97.24% in [4] (3 hr); 97.13% in data set [4] (4 hr). The median lethal dose (LD50) in [5] was 1747.6 mg/kg. Also, in [6] (setting [12]), the AUC – broadly, the area under the concentration-time curve, a measure of exposure – came to 108.29 ± 18.17 µg·h/mL. In data set [6] (setting [12]), this compound had a ClB of 7.83 ± 1.5 mL/min/kg. In [6] (setting [12]), the peak concentration (Cmax) (as a rule, the highest concentration seen after dosing) came out at 116.35 ± 12.06 µg/mL. In [6] (setting [12]), the V1 worked out at 0.25 ± 0.07 L/kg. In data set [6] (setting [12]), the VB was 1.61 ± 0.30 L/kg. For the same compound, the t1/2α in [6] (setting [12]) amounted to 37.8 ± 7.2 min. For the same compound, the t1/2β in [6] (setting [12]) turned out to be 155 ± 2.4 min. The “drug concentration after 12 hours of the administration” value in [6] (healthy Beagle dogs, single intravenous injection 50 mg/kg.bw, 12 hours) amounted to 0.39 ± 0.09 µg/mL.

On to `CC(C)N=C(NC(C)C)SCC(=O)NC1C(=O)N2C(C(=O)[O-])=C(CSc3nc(=O)c(=O)[nH]n3C)CSC12.[K+]` (stereo not drawn) [Compound Ic, 7-(α-((N,N′-diisopropylamidino)thio)acetylamino)-3-(((1,2,5,6-tetrahydro-2-methyl-5,6-dioxo-1,2,4-triazin-3-yl)thio)methyl) cephalosporanic acid monopotassium salt], for which the MIC90 with Excrement Enterococcus [1] was 8 µg/mL; in the data set on Type A Chain Coccus it was 0.1 µg/mL; in the data set on Moraxella Catarrhalis [2] it was 0.5 µg/mL; against Haemophilus Influenzae, 0.5 µg/mL; against Shigella, 4 µg/mL; against Pneumonia Chain Coccus [3] it was 0.5 µg/mL. The compound further displayed an MIC90 in the data set on Type B Chain Coccus of 0.0156 µg/mL.
